Experimental data as given in patent US12329930B2, “Subarachnoid fluid management method and system” (EnClear Therapies, Inc., priority 2020, dated 2025).

Test: Administration of methotrexate to a sheep via the CSF circuit; drug concentration measured with LC/MS in CSF, spinal cord and brain regions
Type: in vivo
Experimental: The inventors administered methotrexate to sheep using illustrative embodiments. An outline of the study is depicted by FIGS. 16A-16C. A sheep used for this experiment received the CSF circuit 10 of illustrative embodiments. Circulation was started at the same time that methotrexate was infused. Methotrexate was infused at a gradual rate of 2 mLs over 2 minutes and then recirculation from lumbar to ventricle was started at a rate of 0.2 mLs/min. Circulation continued after drug infusion was stopped for […]. At zero to three hours, the circulation rate was at 0.1 mL/min and from four to six hours, circulation was at 0.3 mL/min. The dose of methotrexate infused was 12 mg. Drug concentration was measured with LC/MS (liquid chromatography with the mass analysis capabilities of mass spectrometry) in the CSF, spinal cord, and multiple brain regions.
CSF levels of methotrexate were analyzed over time.
The x-axis of this graph is […].

CSF levels of methotrexate, lumbar region (12 mg infused 2 mLs over 2 minutes, lumbar region where drug was infused, lumbar to ventricle circulation, LC/MS): very high
methotrexate levels in brain and spinal cord tissue (12 mg, samples from twelve brain regions homogenized, all areas of the brain and spinal cord): good levels
CSF levels of methotrexate, ventricular samples, initially (12 mg, ventricular CSF samples, initial time points, LC/MS): very low
Structure (SMILES): CN(Cc1cnc2nc(N)nc(N)c2n1)c1ccc(C(=O)N[C@@H](CCC(=O)O)C(=O)O)cc1 [methotrexate]
CSF levels of methotrexate over time, lumbar region (12 mg, lumbar CSF samples, time course, LC/MS): a decline over time was measured except for an increase at 5 hours and then a subsequent decline
CSF levels of methotrexate over time, ventricular samples (12 mg, ventricular CSF samples, later time points, LC/MS): increased at 4 and 5 hours, before declining to a similar level as the lumbar samples
